Drawing on article PMC10156859, “Unveiling an indole alkaloid diketopiperazine biosynthetic pathway that features a unique stereoisomerase and multifunctional methyltransferase” (Nature Communications, 2023), this text covers Km for two compounds.

The subject of the assay is T1, NozMT.
T1 construct: N-terminal hexahistidine-tagged, codon-optimized synthetic gene in pQE31, E. coli M15(pREP4), Ni-NTA purified
Briefly: initial rates, HPLC-UV […] nm, Michaelis-Menten fit. In kind it is biochemical, Nocardiopsis sp. CMB-M0232. Particulars: 2 mM SAM, 10 μM enzyme, 40 mM Tris pH 7.5, 200 mM NaCl, 1% DMSO, 37 °C.

Read-outs that look alike come from different tables or passages of the source.

The term Km denotes the substrate concentration at which the rate is half of its maximum. As to `CC(C)=CC[C@]12C[C@@H]3C(=O)N[C@H](Cc4c[nH]c5ccccc45)C(=O)N3[C@H]1Nc1ccccc12` [compound 6, cyclo-D-Trp-C3'-prenyl-D-Trp], the Km (N1' methylation, read-out: apparent average Km) was 146 µM.

`CC(C)=CC[C@]12C[C@@H]3C(=O)N[C@H](Cc4c[nH]c5ccccc45)C(=O)N3[C@H]1N(C)c1ccccc12` [compound 7, cyclo-D-Trp-N1'-methyl-C3'-prenyl-D-Trp]: the Km (C3 methylation, read-out: apparent Km) came to 606 µM.
